The results in this text go back to US9115092B2, “Substituted quinazoline and pyrido-pyrimidine derivatives” (Asana Biosciences, LLC, priority 2010, dated 2015).

One assay deals with T1, mTOR kinase (Homo sapiens, UniProt P42345).
T1 construct: purchased Millipore, USA
As to the kind of experiment: mTOR kinase TR-FRET assay. As to conditions: read-out: mTO R. Format: biochemical. The gist of the method: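 Compounds preincubated 60 min with mTOR (5 ng) in HEPES pH 7.5, EGTA, MnCl2; ULight-p70 S6K Thr389 peptide (50 nM) and ATP (20 μM) then added, 60 min at room temperature. EDTA-stopped, Eu-anti-phospho antibody detection by TR-FRET (665/615 nm); IC50 from variable-slope sigmoidal fit.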
(In general: In TR-FRET formats the signal depends on donor and acceptor labels being close together.)

For assay [1], the target named is T2, PI3Kα (wild-type), P110/P85α (Homo sapiens, UniProt P42336).
T2 construct: made in house; host or cells: SF9 insect cells
As to the kind of experiment: PI3 Kinase TR-FRET assay, PI3Kα (wild-type). The assay is classed as biochemical. The gist of the method: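 Sf9-expressed His-purified P110/P85α (5 ng) preincubated 60 min RT with compound and PIP2 in buffer with 40 mM MgCl2, 5 mM DTT; reaction started with ATP (PIP2 and ATP both 10 μM), 30 min RT. PIP3 detected by TR-FRET displacement, 665/615 nm ratio; IC50 from dose-response curves.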

T2 sequence (P42336 whole entry): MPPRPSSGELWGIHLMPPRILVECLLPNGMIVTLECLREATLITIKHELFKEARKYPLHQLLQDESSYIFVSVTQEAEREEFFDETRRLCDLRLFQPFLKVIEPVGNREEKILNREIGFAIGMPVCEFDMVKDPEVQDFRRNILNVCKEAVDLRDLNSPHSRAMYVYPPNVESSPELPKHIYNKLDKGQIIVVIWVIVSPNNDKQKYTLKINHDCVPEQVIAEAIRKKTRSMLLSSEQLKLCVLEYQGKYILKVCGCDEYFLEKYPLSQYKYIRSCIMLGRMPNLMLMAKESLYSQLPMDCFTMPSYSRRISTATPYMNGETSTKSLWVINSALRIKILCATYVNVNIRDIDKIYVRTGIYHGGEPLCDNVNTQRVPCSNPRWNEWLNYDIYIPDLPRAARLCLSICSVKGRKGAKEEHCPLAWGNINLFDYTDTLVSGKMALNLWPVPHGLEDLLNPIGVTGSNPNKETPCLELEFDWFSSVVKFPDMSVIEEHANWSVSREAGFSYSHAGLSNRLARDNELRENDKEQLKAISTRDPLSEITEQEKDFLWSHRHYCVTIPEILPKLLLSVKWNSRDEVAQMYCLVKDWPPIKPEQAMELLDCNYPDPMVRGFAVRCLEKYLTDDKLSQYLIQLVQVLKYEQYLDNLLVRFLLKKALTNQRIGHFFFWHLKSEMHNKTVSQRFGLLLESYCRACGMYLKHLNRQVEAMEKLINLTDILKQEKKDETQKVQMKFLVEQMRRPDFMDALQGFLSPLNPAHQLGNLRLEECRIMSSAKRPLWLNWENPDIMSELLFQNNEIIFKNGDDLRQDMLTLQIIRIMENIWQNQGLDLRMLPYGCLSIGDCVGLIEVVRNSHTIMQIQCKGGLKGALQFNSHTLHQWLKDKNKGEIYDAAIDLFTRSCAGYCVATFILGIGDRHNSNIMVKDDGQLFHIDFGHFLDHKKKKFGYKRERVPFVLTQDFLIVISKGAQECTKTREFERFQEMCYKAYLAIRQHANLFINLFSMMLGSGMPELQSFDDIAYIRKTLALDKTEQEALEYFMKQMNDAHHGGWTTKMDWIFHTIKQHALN
T2 sequence (P27986 whole entry partner): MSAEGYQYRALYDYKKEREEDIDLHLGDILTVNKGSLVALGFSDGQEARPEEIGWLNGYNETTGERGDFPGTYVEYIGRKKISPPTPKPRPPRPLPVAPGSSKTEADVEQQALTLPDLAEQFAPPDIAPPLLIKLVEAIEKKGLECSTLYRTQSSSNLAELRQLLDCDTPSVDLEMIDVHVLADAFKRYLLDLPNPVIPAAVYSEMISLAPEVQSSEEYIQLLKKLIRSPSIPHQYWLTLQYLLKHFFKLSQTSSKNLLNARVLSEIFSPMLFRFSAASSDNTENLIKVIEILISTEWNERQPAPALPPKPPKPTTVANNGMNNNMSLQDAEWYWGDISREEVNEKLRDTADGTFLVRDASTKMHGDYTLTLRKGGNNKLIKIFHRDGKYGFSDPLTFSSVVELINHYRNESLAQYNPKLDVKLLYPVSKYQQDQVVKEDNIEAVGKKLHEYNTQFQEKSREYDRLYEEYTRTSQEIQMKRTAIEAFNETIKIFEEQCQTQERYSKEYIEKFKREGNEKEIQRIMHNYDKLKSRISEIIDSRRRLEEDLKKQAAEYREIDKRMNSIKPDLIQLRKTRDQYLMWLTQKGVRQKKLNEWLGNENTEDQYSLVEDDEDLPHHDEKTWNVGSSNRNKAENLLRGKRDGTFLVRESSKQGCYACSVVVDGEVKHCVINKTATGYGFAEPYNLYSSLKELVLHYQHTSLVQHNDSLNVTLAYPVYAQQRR

On to `CNC(=O)c1ccc(NC(=O)Nc2ccc(-c3nc(N4CCOCC4)c4ccc(-c5ccc(C)o5)cc4n3)cc2)cc1` [Example 56, N-methyl-4-(3-{4-[7-(5-methyl-furan-2-yl)-4-morpholin-4-yl-quinazolin-2-yl]-phenyl}-ureido)-benzamide], for which the IC50 is below 50 nM at mTOR kinase and 50 to 200 nM in assay [1].

As to `CN(C)C(=O)c1ccc(NC(=O)Nc2ccc(-c3nc(N4CCOCC4)c4ccc(-c5ccccn5)cc4n3)cc2F)cc1` [Example 156, 4-(3-(2-fluoro-4-(4-morpholino-7-(pyridin-2-yl)quinazolin-2-yl)phenyl)ureido)-N,N-dimethyl-benzamide], the IC50 (on mTOR kinase; in assay [1]) was 50 to 200 nM throughout.

With `CC1CN(c2nc(-c3ccc(NC(=O)Nc4ccc(C(=O)N(C)C)cc4)cc3F)nc3cc(-c4cncnc4)ccc23)CCO1` (centres unmarked) [Example 254, 4-(3-(3-fluoro-4-(4-(2-methylmorpholino)-7-(pyrimidin-5-yl)quinazolin-2-yl)phenyl)ureido)-N,N-dimethyl-benzamide], the IC50 was 50 to 200 nM at mTOR kinase and 201 to 10000 nM in assay [1].

For `CN(C)C(=O)c1ccc(NC(=O)Nc2ccc(-c3nc(N4CCOCC4)c4ccc(-c5cnn(C)c5)cc4n3)cn2)c(F)c1` [Example 172, 3-fluoro-N,N-dimethyl-4-(3-(5-(7-(1-methyl-1H-pyrazol-4-yl)-4-morpholino-quinazolin-2-yl)pyridin-2-yl)ureido)-benzamide], the values for the IC50 (at mTOR kinase; in assay [1]) were 201 to 10000 nM and below 50 nM, respectively.

As to `CN(C)C(=O)c1ccc(NC(=O)Nc2ccc(-c3nc(N4CCOCC4)c4ccc(-c5cc6ccccc6o5)cc4n3)cc2)cc1` [Example 64, 4-{3-[4-(7-benzofuran-2-yl-4-morpholin-4-yl-quinazolin-2-yl)-phenyl]-ureido}-N,N-dimethyl-benzamide], the IC50 (at mTOR kinase; in assay [1]) was 201 to 10000 nM each time.

In the case of `CN(C)C(=O)c1ccc(NC(=O)Nc2ccc(-c3nc(N4CCOCC4)c4ccc(-c5cccc(F)c5)cc4n3)cc2)cc1` [Example 47, 4-(3-{4-[7-(3-fluoro-phenyl)-4-morpholin-4-yl-quinazolin-2-yl]-phenyl}-ureido)-N,N-dimethyl-benzamide], the IC50 at mTOR kinase lay in the range of 201 to 10000 nM; in assay [1], 50 to 200 nM.

In the case of `COc1cccc(-c2ccc3c(N4CCOCC4)nc(-c4ccc(NC(=O)Nc5ccc(C(=O)N(C)C)cc5)cc4)nc3c2)c1` [Example 48, 4-(3-{4-[7-(3-methoxy-phenyl)-4-morpholin-4-yl-quinazolin-2-yl]-phenyl}-ureido)-N,N-dimethyl-benzamide], the IC50 (at mTOR kinase; in assay [1]) was 50 to 200 nM in each case.

Regarding `CN(C)C(=O)c1ccc(NC(=O)Nc2ccc(-c3nc(N4CCOCC4)c4ccc(-c5ccc(C(=O)O)o5)cc4n3)cc2)cc1` [Example 10, 5-(2-(4-(3-(4-(dimethylcarbamoyl)phenyl)ureido)phenyl)-4-morpholino-quinazolin-7-yl)furan-2-carboxylic acid], the IC50 (at mTOR kinase; in assay [1]) was below 50 nM in each case.

In the case of `COc1ccc2c(N3CCOCC3)nc(-c3ccc(NC(=O)Nc4ccc(C(=O)N(C)C)cc4)c(F)c3)nc2c1` [Example 182, 4-(3-(2-fluoro-4-(7-methoxy-4-morpholino-quinazolin-2-yl)phenyl)ureido)-N,N-dimethyl-benzamide], the IC50 on mTOR kinase was below 50 nM; in assay [1] it was 50 to 200 nM.

As to `Cc1ccc(-c2ccc3c(N4CCOCC4)nc(-c4ccc(NC(=O)Nc5ccc(C(=O)N(C)C)c(F)c5)cc4)nc3c2)o1` [Example 266, 2-fluoro-N,N-dimethyl-4-(3-(4-(7-(5-methylfuran-2-yl)-4-morpholino-quinazolin-2-yl)phenyl)ureido)-benzamide], the IC50 (on mTOR kinase; in assay [1]) was 50 to 200 nM in each case.

`CN(C)C(=O)c1ccc(NC(=O)Nc2ccc(-c3nc(N4CCOCC4)c4ccc(-c5cnn(C)c5)cc4n3)c(F)c2)cc1` [Example 249, 4-(3-(3-fluoro-4-(7-(1-methyl-1H-pyrazol-4-yl)-4-morpholino-quinazolin-2-yl)phenyl)ureido)-N,N-dimethyl-benzamide]: the IC50 on mTOR kinase was below 50 nM; in assay [1], 50 to 200 nM.

Take `COc1ncc(-c2cnc3c(N4CCOCC4)nc(-c4ccc(NC(=O)Nc5ccc(C(=O)N(C)C)cc5F)cc4)nc3c2)cn1` [Example 157, 3-fluoro-4-(3-(4-(7-(2-methoxypyrimidin-5-yl)-4-morpholino-pyrido[3,2-d]pyrimidin-2-yl)phenyl)ureido)-N,N-dimethyl-benzamide]: the IC50 (on mTOR kinase; in assay [1]) was below 50 nM throughout.

Take `Cc1ccc(-c2ccc3c(N4CCOC(C)C4)nc(-c4ccc(NC(=O)Nc5ccc(C(=O)N(C)C)cc5)cc4)nc3c2)o1` (centres unmarked) [Example 142, N,N-dimethyl-4-(3-(4-(7-(5-methylfuran-2-yl)-4-(2-methylmorpholino)quinazolin-2-yl)phenyl)ureido)-benzamide]: the IC50 (at mTOR kinase; in assay [1]) was 50 to 200 nM in each case.

As for `Cc1ncccc1-c1ccc2c(N3CCOCC3)nc(-c3ccc(NC(=O)Nc4ccc(C(=O)N(C)C)cc4)cc3)nc2c1` [Example 165, N,N-dimethyl-4-(3-(4-(7-(2-methylpyridin-3-yl)-4-morpholino-quinazolin-2-yl)phenyl)ureido)-benzamide], the IC50 (on mTOR kinase; in assay [1]) was below 50 nM each time.

On to `CN(C)C(=O)c1ccc(NC(=O)Nc2ccc(-c3nc(N4CCOCC4)c4ncc(-c5cccnc5F)cc4n3)cc2)cc1F` [Example 248, 2-fluoro-4-(3-(4-(7-(2-fluoropyridin-3-yl)-4-morpholino-pyrido[3,2-d]pyrimidin-2-yl)phenyl)ureido)-N,N-dimethyl-benzamide], for which the IC50 (at mTOR kinase; in assay [1]) was below 50 nM throughout.

With `CN(C)C(=O)c1ccc(NC(=O)Nc2ccc(-c3nc(N4CCOCC4)c4ccc(-c5ccccn5)cc4n3)cc2)c(F)c1` [Example 168, 3-fluoro-N,N-dimethyl-4-(3-(4-(4-morpholino-7-(pyridin-2-yl)quinazolin-2-yl)phenyl)ureido)-benzamide], the IC50 (at mTOR kinase; in assay [1]) was below 50 nM in each case.

Turning to `CN(C)CCNC(=O)c1ccc2c(N3CCOCC3)nc(-c3ccc(NC(=O)Nc4ccc(C(=O)N(C)C)cc4)cc3)nc2c1` [Example 7, 2-[4-{3-(4-Dimethycarbamoyl-phenyl)-Ureido]-phenyl}-4-morpholin-4-yl-quinazoline-7-carboxylic acid (2-dimethylamino-ethyl)-amide], the figures for the IC50 (on mTOR kinase; in assay [1]) were below 50 nM and 50 to 200 nM, respectively.

Turning to `COc1ccc(-c2ccc3c(N4CCOCC4)nc(-c4ccc(NC(=O)Nc5ccc(C(=O)N(C)C)cc5F)cc4)nc3c2)cn1` [Example 170, 3-fluoro-4-(3-(4-(7-(6-methoxypyridin-3-yl)-4-morpholino-quinazolin-2-yl)phenyl)ureido)-N,N-dimethyl-benzamide], the IC50 was 50 to 200 nM at mTOR kinase and below 50 nM in assay [1].

Consider `CN(C)CCNC(=O)c1ccc(NC(=O)Nc2ccc(-c3nc(N4CCOCC4)c4ccc(-c5ccco5)cc4n3)cc2)cc1` [Example 235, N-(2-(dimethylamino)ethyl)-4-(3-(4-(7-(furan-2-yl)-4-morpholino-quinazolin-2-yl)phenyl)ureido)-benzamide], for which the IC50 (at mTOR kinase; in assay [1]) was below 50 nM each time.

As for `CC(=O)c1ccc(-c2ccc3c(N4CCOCC4)nc(-c4ccc(NC(=O)Nc5ccc(C(=O)N(C)C)c(F)c5)cc4)nc3c2)o1` [Example 13, 4-(3-(4-(7-(5-acetylfuran-2-yl)-4-morpholino-quinazolin-2-yl)phenyl)ureido)-2-fluoro-N,N-dimethyl-benzamide], the IC50 (at mTOR kinase; in assay [1]) was below 50 nM in each case.

Regarding `CN(C)C(=O)c1ccc(NC(=O)Nc2ccc(-c3nc(N4CCOCC4)c4ccc(-c5ccc(C(=O)N(C)C)o5)cc4n3)cc2)cc1` [Example 229, 5-(2-(4-(3-(4-(dimethylcarbamoyl)phenyl)ureido)phenyl)-4-morpholine-quinazolin-7-yl)-N,N-dimethylfuran-2-carboxamide], the IC50 (at mTOR kinase; in assay [1]) was below 50 nM each time.

Turning to `CN(C)C(=O)c1ccc(NC(=O)Nc2ccc(-c3nc(N4CCOCC4)c4ccc(-c5ccc(CO)o5)cc4n3)cc2)cc1F` [Example 278, 2-fluoro-4-(3-(4-(7-(5-(hydroxymethyl)furan-2-yl)-4-morpholino-quinazolin-2-yl)phenyl)ureido)-N,N-dimethyl-benzamide], the IC50 (on mTOR kinase; in assay [1]) was below 50 nM each time.

For the compound `Cc1ccc(-c2ccc3c(N4CCOCC4)nc(-c4ccc(NC(=O)Nc5ccc(C(=O)N(C)C)cc5)c(F)c4F)nc3c2)o1` [Example 281, 4-(3-(2,3-difluoro-4-(7-(5-methylfuran-2-yl)-4-morpholino-quinazolin-2-yl)phenyl)ureido)-N,N-dimethyl-benzamide], the IC50 (on mTOR kinase; in assay [1]) was 201 to 10000 nM throughout.

As to `CN(C)C(=O)c1ccc(NC(=O)Nc2ccc(-c3nc(N4CCOCC4)c4ncc(-c5cccnc5F)cc4n3)cc2)c(F)c1` [Example 145, 3-fluoro-4-(3-(4-(7-(2-fluoropyridin-3-yl)-4-morpholino-pyrido[3,2-d]pyrimidin-2-yl)phenyl)ureido)-N,N-dimethyl-benzamide], the IC50 (at mTOR kinase; in assay [1]) was below 50 nM throughout.

`Cc1ccc(-c2ccc3c(N4CCOCC4)nc(-c4ccc(NC(=O)Nc5ccc(C(=O)N(C)C)cc5)cc4)nc3c2)s1` [Example 61, N,N-dimethyl-4-(3-{4-[7-(5-methyl-thiophen-2-yl)-4-morpholin-4-yl-quinazolin-2-yl]-phenyl}-ureido)-benzamide]: the figures for the IC50 (on mTOR kinase; in assay [1]) were 201 to 10000 nM and 50 to 200 nM, respectively.
